Experimental data: US20130072473A1, “COMPOUNDS FOR TREATING PROTEIN FOLDING DISORDERS” (PROTEOSTASIS THERAPEUTICS, INC., priority 2011, published 2013)

Target: T1, ΔF508 expressing CFBE410- lung cells (Homo sapiens, UniProt P13569, DEL508-508)
T1 construct: host or cells: CFBE41o- lung cells
Assay: CFTR folding and trafficking assay (immunoblot of band B and C glycoforms)
Assay type: cell-based
Conditions: CFBE410- lung cells cultured in presence of compound versus DMSO; FIG. 1
Method: CFTR transport assays. Either ΔF508 expressing CFBE410- lung cells were cultured in the presence or absence of reagent in 12 well Sarstedt dishes, harvested, lysed and the processing of CFTR from the band B to the band C glycoform detected by SDS-PAGE and immunoblotting using either monoclonal 3G11 or M3A7.
Quantitation of CFTR glycoforms: Immunoblot exposures were selected to allow visualization of CFTR recovery under identical protein loads in same SDS-PAGE for all treatments. Given the dynamic range, quantitation of the band B and C glycoforms was made by analysis of band intensities that were in the linear range. The x-ray films were exposed for increasing time and the different exposures were quantified using a FluroChemSP (Alpha Inotech) densitometer/software package. Where band B and C were quantified from different exposures, an internal reference was used to normalize the signal intensity. This method is described in more detail in Hutt et al. (2010).^16 Reduced histone deacetylase 7 activity restores function to misfolded CFTR in cystic fibrosis, Nature Chemical Biology (2010), 6(1), 25-33, the contents of which are expressly incorporated by reference herein.

T1 sequence (P13569 with tags, fused parts or gaps DEL508-508): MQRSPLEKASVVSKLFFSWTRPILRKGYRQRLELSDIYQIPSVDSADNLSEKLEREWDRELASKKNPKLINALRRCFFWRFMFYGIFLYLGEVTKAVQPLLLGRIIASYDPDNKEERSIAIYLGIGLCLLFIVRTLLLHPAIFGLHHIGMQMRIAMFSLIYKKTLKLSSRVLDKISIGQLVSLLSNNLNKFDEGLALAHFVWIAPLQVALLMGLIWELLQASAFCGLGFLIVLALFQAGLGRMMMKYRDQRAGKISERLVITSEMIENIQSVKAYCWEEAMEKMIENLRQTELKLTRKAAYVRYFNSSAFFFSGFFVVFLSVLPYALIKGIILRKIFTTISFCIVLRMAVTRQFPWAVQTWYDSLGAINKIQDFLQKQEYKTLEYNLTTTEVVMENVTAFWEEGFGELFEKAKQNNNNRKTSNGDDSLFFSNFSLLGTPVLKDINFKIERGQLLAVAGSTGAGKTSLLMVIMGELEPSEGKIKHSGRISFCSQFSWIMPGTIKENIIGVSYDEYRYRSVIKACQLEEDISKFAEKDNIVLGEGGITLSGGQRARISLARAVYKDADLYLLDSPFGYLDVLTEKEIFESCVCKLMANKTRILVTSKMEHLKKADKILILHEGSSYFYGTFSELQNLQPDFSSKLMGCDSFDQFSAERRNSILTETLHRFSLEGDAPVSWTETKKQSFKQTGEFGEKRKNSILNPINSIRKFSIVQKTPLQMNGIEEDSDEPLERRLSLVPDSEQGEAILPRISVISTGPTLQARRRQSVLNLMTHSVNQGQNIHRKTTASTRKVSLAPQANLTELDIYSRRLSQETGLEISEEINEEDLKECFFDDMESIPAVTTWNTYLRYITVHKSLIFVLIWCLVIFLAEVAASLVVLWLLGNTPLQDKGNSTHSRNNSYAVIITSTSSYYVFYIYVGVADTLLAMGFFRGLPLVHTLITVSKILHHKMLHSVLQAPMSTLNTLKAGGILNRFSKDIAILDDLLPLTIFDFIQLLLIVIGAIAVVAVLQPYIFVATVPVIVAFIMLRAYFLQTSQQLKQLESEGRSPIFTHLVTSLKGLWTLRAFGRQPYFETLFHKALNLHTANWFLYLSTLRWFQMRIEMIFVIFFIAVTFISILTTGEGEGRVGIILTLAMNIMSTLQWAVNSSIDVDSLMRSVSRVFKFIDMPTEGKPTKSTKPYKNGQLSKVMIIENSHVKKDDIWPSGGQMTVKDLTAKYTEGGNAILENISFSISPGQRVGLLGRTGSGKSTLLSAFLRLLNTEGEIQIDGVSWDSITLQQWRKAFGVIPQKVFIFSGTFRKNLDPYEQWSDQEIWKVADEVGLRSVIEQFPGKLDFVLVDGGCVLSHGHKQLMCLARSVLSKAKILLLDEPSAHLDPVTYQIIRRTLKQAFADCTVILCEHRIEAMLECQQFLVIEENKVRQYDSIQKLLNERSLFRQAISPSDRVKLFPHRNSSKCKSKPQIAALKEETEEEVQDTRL

CCN1CCc2c(sc(NC(C)=O)c2-c2nc3ccccc3s2)C1 [Example 2, N-(3-(benzo[d]thiazol-2-yl)-6-ethyl-4,5,6,7-tetrahydrothieno[2,3-c]pyridin-2-yl)acetamide]
levels of CFTR band B and C by immunoblot: enhanced levels of band B and C
